Assay results: ChEMBL document CHEMBL1136988, “1-amino-4-benzylphthalazines as orally bioavailable smoothened antagonists with antitumor activity” (J Med Chem, 2009)

Assays:
Protein smoothened [1] = biological target: T1, Protein smoothened (Mus musculus, UniProt P56726); format: cell-based, TM3
Description: Inhibition of Smoothened receptor in mouse TM3 cells transfected with pTA-8xGli-Luc reporter gene assessed as inhibition of 25 nM 3-chloro-4,7-difluoro-N-(4-methoxy-3-(pyridin-4-yl)benzyl)-N-(4-(methylamino)cyclohexyl)benzo[b]thiophene-2-carboxamide-induced Hedgehog pathway activation by Gli shift assay

Protein smoothened [2] = biological target: T1, Protein smoothened; assay: Inhibition of Smoothened receptor in mouse TM3 cells transfected with pTA-8xGli-Luc reporter gene assessed as inhibition of 1 nM 3-chloro-4,7-difluoro-N-(4-methoxy-3-(pyridin-4-yl)benzyl)-N-(4-(methylamino)cyclohexyl)benzo[b]thiophene-2-carboxamide-induced Hedgehog pathway activation by Gli shift assay; format: cell-based
Protein smoothened [3] = biological target: T1, Protein smoothened; assay: Displacement of [3H]3-chloro-4,7-difluoro-N-(4-methoxy-3-(pyridin-4-yl)benzyl)-N-(4-(methylamino)cyclohexyl)benzo[b]thiophene-2-carboxamide from mouse Smoothened receptor expressed in CHO-K1 cells by membrane filter binding assay; format: cell-based
Protein smoothened [4] = biological target: Protein smoothened (Homo sapiens, UniProt Q99835); assay: Displacement of [3H]3-chloro-4,7-difluoro-N-(4-methoxy-3-(pyridin-4-yl)benzyl)-N-(4-(methylamino)cyclohexyl)benzo[b]thiophene-2-carboxamide from human Smoothened receptor expressed in CHO-K1 cells by membrane filter binding assay; format: cell-based
Protein smoothened (Homo sapiens, UniProt Q99835), sequence (Q99835 whole entry): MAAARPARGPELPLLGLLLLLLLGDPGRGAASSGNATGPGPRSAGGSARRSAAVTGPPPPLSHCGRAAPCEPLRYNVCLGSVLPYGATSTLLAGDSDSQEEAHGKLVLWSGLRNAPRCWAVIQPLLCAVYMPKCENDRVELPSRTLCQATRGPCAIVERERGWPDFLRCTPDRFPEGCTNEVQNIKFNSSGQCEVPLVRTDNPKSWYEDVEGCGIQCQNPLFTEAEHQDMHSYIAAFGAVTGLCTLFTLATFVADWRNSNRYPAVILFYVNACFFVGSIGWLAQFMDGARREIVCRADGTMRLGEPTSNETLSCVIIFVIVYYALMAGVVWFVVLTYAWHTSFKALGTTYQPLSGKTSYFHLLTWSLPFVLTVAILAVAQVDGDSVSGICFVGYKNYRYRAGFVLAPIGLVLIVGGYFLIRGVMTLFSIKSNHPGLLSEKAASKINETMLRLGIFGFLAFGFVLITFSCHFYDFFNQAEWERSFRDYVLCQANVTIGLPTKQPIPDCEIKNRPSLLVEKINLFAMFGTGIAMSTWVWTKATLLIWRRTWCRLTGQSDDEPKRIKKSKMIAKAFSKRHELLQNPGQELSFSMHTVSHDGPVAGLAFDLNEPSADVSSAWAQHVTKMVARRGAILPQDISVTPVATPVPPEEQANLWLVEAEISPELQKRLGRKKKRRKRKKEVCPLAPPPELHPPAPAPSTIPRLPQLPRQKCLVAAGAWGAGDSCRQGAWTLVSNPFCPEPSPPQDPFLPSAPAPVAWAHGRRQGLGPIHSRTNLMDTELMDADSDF

T1 sequence (P56726 whole entry): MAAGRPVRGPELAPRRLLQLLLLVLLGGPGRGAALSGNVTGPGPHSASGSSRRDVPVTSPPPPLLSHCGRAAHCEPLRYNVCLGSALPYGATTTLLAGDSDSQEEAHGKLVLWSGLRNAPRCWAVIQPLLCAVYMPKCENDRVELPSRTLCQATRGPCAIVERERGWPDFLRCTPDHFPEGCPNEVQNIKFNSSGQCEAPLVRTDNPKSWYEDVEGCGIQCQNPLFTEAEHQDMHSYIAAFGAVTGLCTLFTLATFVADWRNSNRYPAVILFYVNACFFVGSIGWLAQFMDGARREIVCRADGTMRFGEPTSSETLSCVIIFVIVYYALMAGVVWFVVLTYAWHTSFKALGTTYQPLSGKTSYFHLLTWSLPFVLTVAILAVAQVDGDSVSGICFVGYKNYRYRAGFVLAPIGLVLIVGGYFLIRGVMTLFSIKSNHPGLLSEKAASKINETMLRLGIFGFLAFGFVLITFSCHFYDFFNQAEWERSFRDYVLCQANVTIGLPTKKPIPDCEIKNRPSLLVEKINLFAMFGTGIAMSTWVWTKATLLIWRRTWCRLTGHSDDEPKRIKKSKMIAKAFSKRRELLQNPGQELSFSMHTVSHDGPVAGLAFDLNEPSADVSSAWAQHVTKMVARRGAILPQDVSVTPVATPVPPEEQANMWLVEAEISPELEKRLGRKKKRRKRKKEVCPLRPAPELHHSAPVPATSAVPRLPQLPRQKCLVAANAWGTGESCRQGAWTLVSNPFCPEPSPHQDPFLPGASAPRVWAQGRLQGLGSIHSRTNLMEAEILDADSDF

| SMILES | IC50 (Protein smoothened [1]) | IC50 (Protein smoothened [2]) | IC50 (Protein smoothened [3]) | IC50 (Protein smoothened [4]) |
| --- | --- | --- | --- | --- |
| N#Cc1ccc(N2CCN(c3nnc(Cc4ccc(C(F)(F)F)cc4)c4ccccc34)CC2)nc1 | 1240 nM | 366 nM | 226 nM | 185 nM |
| N#Cc1ccc(N2CCN(c3nnc(Cc4ccc(C(=O)O)cc4)c4ccccc34)CC2)nc1 | > 5000 nM | > 5000 nM | > 5000 nM | > 5000 nM |
| FC(F)(F)c1ccc(N2CCN(c3nnc(Cc4ccccc4)c4[nH]cnc34)CC2)nc1 | 1550 nM | 724 nM | > 5000 nM | > 5000 nM |
| FC(F)(F)c1ccc(N2CCN(c3nnc(Cc4ccccc4)c4ccoc34)CC2)nc1 | > 5000 nM | 1800 nM | > 5000 nM | > 5000 nM |
| COC(=O)c1ccc(Cc2nnc(N3CCN(c4ccc(C#N)cn4)CC3)c3ccccc23)cc1 | > 5000 nM | 265 nM | 165 nM | 2930 nM |
| N#Cc1ccc(N2CCCN(c3nnc(Cc4ccccc4)c4ccccc34)CC2)nc1 | 1630 nM | 210 nM | 153 nM | 391 nM |
| FC(F)(F)c1ccc(N2CCN(c3nnc(Cc4ccccc4)c4occc34)CC2)nc1 | 2560 nM | 212 nM | 139 nM | 230 nM |
| N#Cc1ccc(N2CCN(c3cnc(Cc4ccccc4)c4ccccc34)CC2)nc1 | 2500 nM | 910 nM | > 5000 nM | > 5000 nM |
| N#Cc1ccc(N2CCN(c3nnc(Cc4ccc(F)cc4)c4ccccc34)CC2)nc1 | 975 nM | 112 nM | 69 nM | 103 nM |
| O=C(O)c1ccc(N2CCN(c3nnc(Cc4ccccc4)c4ccccc34)CC2)nc1 | > 5000 nM | 2670 nM | 1640 nM | 2260 nM |
| NS(=O)(=O)c1ccc(N2CCN(c3nnc(Cc4ccccc4)c4ccccc34)CC2)nc1 | 919 nM | 104 nM | 90 nM | 306 nM |
| N#Cc1ccc(N2CCC(c3cn(Cc4ccccc4)c4ccccc34)CC2)nc1 | 1510 nM | 382 nM | 386 nM | 401 nM |
| OCc1ccc(N2CCN(c3nnc(Cc4ccccc4)c4ccccc34)CC2)nc1 | 2450 nM | 374 nM | 187 nM | 484 nM |
| FC(F)(F)c1ccc(N2CCN(c3nnc(Cc4ccccc4)c4ccccc34)CC2)nc1 | 1330 nM | 134 nM | 74 nM | 95 nM |
| N#Cc1ccc(N2CCN(c3ncc(Cc4ccccc4)c4ccccc34)CC2)nc1 | 2990 nM | 1430 nM | > 5000 nM | > 5000 nM |
| c1ccc(Cc2nnc(N3CCN(c4ccccc4)CC3)c3ccccc23)cc1 | 2250 nM | 414 nM | 1100 nM | 4240 nM |
| c1ccc(N2CCN(c3nnc(Cc4ccncc4)c4ccccc34)CC2)nc1 | 4490 nM | 690 nM | 3690 nM | > 5000 nM |
| N#Cc1ccc(N2CCN(c3nnc(Cc4ccccc4)c4ccccc34)CC2)nc1 | 821 nM | 69 nM | 71 nM | 112 nM |
| N#Cc1ccc(C2CCN(c3nnc(Cc4ccccc4)c4ccccc34)CC2)cc1 | > 5000 nM | 3780 nM | > 5000 nM | > 5000 nM |

Stronger by IC50 (Protein smoothened [1]), values ahead:

| IC50 (Protein smoothened [1]) | IC50 (Protein smoothened [2]) | IC50 (Protein smoothened [3]) | IC50 (Protein smoothened [4]) | SMILES |
| --- | --- | --- | --- | --- |
| 772 nM | 258 nM | 643 nM | 1240 nM | c1ccc(Cc2nnc(N3CCN(c4ccccn4)CC3)c3ccccc23)cc1 |
| 738 nM | 86 nM | 180 nM | 217 nM | C[C@@H]1CN(c2ccc(C#N)cn2)CCN1c1nnc(Cc2ccccc2)c2ccccc12 |
| 735 nM | 79 nM | 66 nM | 59 nM | C[C@H]1CN(c2nnc(Cc3ccccc3)c3ccccc23)CCN1c1ccc(C#N)cn1 |
| 693 nM | 112 nM | 54 nM | 82 nM | N#Cc1ccc(N2CCN(c3nnc(Cc4cccc(Cl)c4)c4ccccc34)CC2)nc1 |
| 498 nM | 48 nM | 20 nM | 25 nM | N#Cc1ccc(N2CCN(c3nnc(Cc4ccc(Cl)cc4)c4ccccc34)CC2)nc1 |
| 345 nM | 55 nM | 10 nM | 21 nM | OC1(c2ccc(N3CCN(c4nnc(Cc5ccccc5)c5ccccc45)CC3)nc2)CC1 |
| 327 nM | 35 nM | 96 nM | 196 nM | CC(=O)NCc1ccc(N2CCN(c3nnc(Cc4ccccc4)c4ccccc34)CC2)nc1 |
| 256 nM | 20 nM | 23 nM | 34 nM | N#Cc1ccc(Cc2nnc(N3CCN(c4ccc(C#N)cn4)CC3)c3ccccc23)cc1 |
| 246 nM | 14 nM | 287 nM | 654 nM | CN(C)Cc1ccc(N2CCN(c3nnc(Cc4ccccc4)c4ccccc34)CC2)nc1 |
| 244 nM | 30 nM | 17 nM | 34 nM | C[C@@H]1CN(c2nnc(Cc3ccccc3)c3ccccc23)CCN1c1ccc(C#N)cn1 |
| 222 nM | 38 nM | 61 nM | 67 nM | CC(O)c1ccc(N2CCN(c3nnc(Cc4ccccc4)c4ccccc34)CC2)nc1 (stereo unspecified) |
| 210 nM | 25 nM | 22 nM | 17 nM | C[C@H]1CN(c2ccc(C#N)cn2)CCN1c1nnc(Cc2ccccc2)c2ccccc12 |
| 149 nM | 46 nM | 173 nM | 724 nM | NC(=O)c1ccc(N2CCN(c3nnc(Cc4ccccc4)c4ccccc34)CC2)nc1 |
| 136 nM | 17 nM | 28 nM | 70 nM | CC(O)(CO)c1ccc(N2CCN(c3nnc(Cc4ccccc4)c4ccccc34)CC2)nc1 (racemic) |
| 42 nM | 1.3 nM | 6 nM | 15 nM | CC(C)(N)c1ccc(N2CCN(c3nnc(Cc4ccccc4)c4ccccc34)CC2)nc1 |
